ChEMBL document CHEMBL1152224, “Small, non-peptide C5a receptor antagonists: part 1” (Bioorg Med Chem Lett, 2008)

Key:
[1] = Lipophilicity, log P of the compound; format: physicochemical; details: octanol/water
[2] = in vitro; details: human, liver microsomes
[3] = physchem; details: octanol/water, pH 7.4
[4] = Half life in rat at 0.5 mg/kg, iv and 10 mg/kg, po; format: ADME, organism-based; details: in vivo
[5] = Clearance in rat at 0.5 mg/kg, iv and 10 mg/kg, po; format: ADME, organism-based; details: in vivo
[6] = Volume of distribution in rat at 0.5 mg/kg, iv and 10 mg/kg, po; format: ADME, organism-based; details: in vivo
[7] = Oral bioavailability in rat at 10 mg/kg, po; format: ADME, organism-based; details: in vivo
[8] = Half life in dog at 0.5 mg/kg, iv; format: ADME, organism-based, Canis lupus familiaris; parameters: dose 0.5 mg/kg, route intravenous; details: in vivo
[9] = Clearance in dog at 0.5 mg/kg, iv; format: ADME, organism-based, Canis lupus familiaris; parameters: dose 0.5 mg/kg, route intravenous; details: in vivo
[10] = Volume of distribution in dog at 0.5 mg/kg, iv; format: ADME, organism-based, Canis lupus familiaris; parameters: dose 0.5 mg/kg, route intravenous; details: in vivo

Structure (SMILES)	logP [1]	half-life [2] [min]	logD [3]	half-life [4] [min]	clearance [5] [L/h/kg]	Vd [6] [L/kg]	bioavailability [7] [%]	half-life [8] [min]	clearance [9] [L/h/kg]	Vd [10] [L/kg]
O=C(Nc1ccc(F)cc1F)N1CCC(N(CCc2ccc(Cl)cc2)C(=O)c2csc3ccccc23)CC1	> 5	11								
O=C(c1csc2ccccc12)N(CCc1ccc(Cl)cc1)C1CCN(CCc2ccc(F)cc2F)CC1			4.1							
O=C(c1csc2ccccc12)N(CCc1ccc(Cl)cc1)[C@H]1CC[C@H](O)CC1		14	4.9	30	4.02	3	0.5			
O=C(c1cccc2ccccc12)N(CCc1ccc(Cl)cc1)[C@H]1CC[C@H](O)CC1		20	> 5					84	1.74	3.5
